ChEMBL document CHEMBL5465560, “Selectivity Literature for EUbOPEN Chemogenomic Library” (2024)

Key:
[1] = molecular target: Tyrosine-protein kinase JAK1 (Homo sapiens, UniProt P23458); experiment: Selectivity interaction (Kinase panel (33PanQinase(R) Activity Assay)) EUB0000877a JAK1
[2] = molecular target: Aurora kinase B (Homo sapiens, UniProt Q96GD4); experiment: Selectivity interaction (Kinase panel (Invitrogen, enzymatic assay)) EUB0000162b AURKB
[3] = molecular target: Receptor-type tyrosine-protein kinase FLT3 (Homo sapiens) (UniProt P36888); experiment: Selectivity interaction (KinaseProfiler screening (Millipore)) EUB0000601a FLT3; conditions: at 3 µM
[4] = molecular target: Cyclin-dependent kinase 3 (Homo sapiens) (UniProt Q00526); experiment: Selectivity interaction (KinomeScan (DiscoverX)) EUB0000595a CDK3; conditions: at 10 µM
[5] = molecular target: Ribosomal protein S6 kinase alpha-3 (Homo sapiens, UniProt P51812); experiment: Selectivity interaction (KinomeScan (DiscoverX)) EUB0001049a RPS6KA3; conditions: at 1 µM
[6] = molecular target: T1, Serine/threonine-protein kinase haspin (Homo sapiens) (UniProt Q8TF76); experiment: Selectivity interaction (KinomeScan (DiscoverX)) EUB0001049a GSG2; conditions: at 1 µM
T1 sequence (whole entry): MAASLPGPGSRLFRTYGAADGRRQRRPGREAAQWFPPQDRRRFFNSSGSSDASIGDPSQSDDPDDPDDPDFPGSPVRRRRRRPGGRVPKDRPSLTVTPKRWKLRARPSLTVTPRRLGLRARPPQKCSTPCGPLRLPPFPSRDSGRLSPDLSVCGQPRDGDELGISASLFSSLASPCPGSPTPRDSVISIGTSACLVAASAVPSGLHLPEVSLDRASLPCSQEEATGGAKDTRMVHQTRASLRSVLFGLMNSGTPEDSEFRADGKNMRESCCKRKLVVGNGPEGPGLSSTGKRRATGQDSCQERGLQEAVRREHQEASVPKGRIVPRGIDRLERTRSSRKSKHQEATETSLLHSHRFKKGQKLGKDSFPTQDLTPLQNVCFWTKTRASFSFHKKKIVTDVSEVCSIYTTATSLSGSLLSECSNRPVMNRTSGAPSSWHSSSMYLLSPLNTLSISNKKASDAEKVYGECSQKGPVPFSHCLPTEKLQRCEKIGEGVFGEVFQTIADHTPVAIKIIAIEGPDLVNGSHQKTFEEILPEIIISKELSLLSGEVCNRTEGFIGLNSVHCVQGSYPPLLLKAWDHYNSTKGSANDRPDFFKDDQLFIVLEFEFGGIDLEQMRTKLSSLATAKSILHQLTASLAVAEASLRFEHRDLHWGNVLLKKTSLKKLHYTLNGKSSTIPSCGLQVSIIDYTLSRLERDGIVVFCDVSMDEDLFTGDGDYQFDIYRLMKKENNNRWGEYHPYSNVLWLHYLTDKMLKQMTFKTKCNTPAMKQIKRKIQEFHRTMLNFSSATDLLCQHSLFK

[7] = molecular target: T2, Serine/threonine-protein kinase D2 (Homo sapiens) (UniProt Q9BZL6); experiment: Selectivity interaction (Kinase screening (Nanosyn)) EUB0000604a PRKD2
T2 sequence (whole entry): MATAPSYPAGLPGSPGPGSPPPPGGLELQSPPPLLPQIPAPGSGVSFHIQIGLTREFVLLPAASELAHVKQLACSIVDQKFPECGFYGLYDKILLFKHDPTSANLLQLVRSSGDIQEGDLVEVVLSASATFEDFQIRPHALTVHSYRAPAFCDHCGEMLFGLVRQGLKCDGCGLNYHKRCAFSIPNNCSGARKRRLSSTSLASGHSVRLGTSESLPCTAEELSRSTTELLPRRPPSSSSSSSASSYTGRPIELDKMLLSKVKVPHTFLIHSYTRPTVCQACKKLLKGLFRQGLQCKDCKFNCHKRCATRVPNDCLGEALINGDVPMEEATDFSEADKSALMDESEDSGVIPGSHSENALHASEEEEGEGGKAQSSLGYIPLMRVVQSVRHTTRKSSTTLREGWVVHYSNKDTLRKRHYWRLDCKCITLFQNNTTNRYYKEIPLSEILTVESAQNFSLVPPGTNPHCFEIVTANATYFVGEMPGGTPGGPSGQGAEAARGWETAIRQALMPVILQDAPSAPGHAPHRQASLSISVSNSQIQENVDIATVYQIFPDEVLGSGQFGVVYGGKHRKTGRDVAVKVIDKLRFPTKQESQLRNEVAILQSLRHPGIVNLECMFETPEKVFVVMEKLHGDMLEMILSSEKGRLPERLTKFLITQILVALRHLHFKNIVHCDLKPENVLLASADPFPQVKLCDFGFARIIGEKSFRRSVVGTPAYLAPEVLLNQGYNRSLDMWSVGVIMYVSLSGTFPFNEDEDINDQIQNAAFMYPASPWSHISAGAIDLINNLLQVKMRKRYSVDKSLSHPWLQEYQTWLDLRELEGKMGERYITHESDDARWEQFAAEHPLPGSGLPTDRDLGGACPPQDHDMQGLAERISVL

[8] = molecular target: Phosphorylase b kinase gamma catalytic chain, skeletal muscle/heart isoform (Homo sapiens) (UniProt Q16816); experiment: Selectivity interaction (KinomeScan (DiscoverX)) EUB0000655a PHKG1; conditions: at 10 µM
Phosphorylase b kinase gamma catalytic chain, skeletal muscle/heart isoform (Homo sapiens), sequence (Q16816 whole entry, looked up, canonical isoform): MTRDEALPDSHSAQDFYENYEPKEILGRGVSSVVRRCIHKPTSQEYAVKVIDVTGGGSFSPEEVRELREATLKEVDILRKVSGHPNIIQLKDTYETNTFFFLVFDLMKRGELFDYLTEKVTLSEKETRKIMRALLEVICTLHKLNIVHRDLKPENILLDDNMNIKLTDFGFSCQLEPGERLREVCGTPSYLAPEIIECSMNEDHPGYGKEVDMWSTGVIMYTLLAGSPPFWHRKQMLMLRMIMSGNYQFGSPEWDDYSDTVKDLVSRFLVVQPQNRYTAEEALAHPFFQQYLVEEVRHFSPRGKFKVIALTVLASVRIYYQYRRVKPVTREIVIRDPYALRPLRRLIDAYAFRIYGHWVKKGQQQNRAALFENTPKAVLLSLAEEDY

Cyclin-dependent kinase 3 (Homo sapiens), sequence (Q00526 whole entry, looked up): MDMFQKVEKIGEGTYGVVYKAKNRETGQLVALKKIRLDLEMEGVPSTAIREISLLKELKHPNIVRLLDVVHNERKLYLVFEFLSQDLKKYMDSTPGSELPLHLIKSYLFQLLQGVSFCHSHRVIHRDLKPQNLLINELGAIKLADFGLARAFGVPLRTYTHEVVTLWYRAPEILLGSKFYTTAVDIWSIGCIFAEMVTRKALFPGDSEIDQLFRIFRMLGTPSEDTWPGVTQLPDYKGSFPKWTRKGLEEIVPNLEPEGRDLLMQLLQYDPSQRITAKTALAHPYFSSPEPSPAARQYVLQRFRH
Aurora kinase B, sequence (Q96GD4 whole entry): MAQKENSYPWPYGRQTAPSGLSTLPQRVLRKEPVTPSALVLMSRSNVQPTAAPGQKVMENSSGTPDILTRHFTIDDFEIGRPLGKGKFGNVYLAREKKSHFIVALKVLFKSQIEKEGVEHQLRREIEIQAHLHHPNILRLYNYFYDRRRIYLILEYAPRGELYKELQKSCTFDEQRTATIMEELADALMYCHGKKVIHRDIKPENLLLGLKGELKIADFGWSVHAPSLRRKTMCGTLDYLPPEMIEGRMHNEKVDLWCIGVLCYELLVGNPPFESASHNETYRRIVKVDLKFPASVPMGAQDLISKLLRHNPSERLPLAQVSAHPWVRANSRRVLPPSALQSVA
Receptor-type tyrosine-protein kinase FLT3 (Homo sapiens), sequence (P36888 whole entry): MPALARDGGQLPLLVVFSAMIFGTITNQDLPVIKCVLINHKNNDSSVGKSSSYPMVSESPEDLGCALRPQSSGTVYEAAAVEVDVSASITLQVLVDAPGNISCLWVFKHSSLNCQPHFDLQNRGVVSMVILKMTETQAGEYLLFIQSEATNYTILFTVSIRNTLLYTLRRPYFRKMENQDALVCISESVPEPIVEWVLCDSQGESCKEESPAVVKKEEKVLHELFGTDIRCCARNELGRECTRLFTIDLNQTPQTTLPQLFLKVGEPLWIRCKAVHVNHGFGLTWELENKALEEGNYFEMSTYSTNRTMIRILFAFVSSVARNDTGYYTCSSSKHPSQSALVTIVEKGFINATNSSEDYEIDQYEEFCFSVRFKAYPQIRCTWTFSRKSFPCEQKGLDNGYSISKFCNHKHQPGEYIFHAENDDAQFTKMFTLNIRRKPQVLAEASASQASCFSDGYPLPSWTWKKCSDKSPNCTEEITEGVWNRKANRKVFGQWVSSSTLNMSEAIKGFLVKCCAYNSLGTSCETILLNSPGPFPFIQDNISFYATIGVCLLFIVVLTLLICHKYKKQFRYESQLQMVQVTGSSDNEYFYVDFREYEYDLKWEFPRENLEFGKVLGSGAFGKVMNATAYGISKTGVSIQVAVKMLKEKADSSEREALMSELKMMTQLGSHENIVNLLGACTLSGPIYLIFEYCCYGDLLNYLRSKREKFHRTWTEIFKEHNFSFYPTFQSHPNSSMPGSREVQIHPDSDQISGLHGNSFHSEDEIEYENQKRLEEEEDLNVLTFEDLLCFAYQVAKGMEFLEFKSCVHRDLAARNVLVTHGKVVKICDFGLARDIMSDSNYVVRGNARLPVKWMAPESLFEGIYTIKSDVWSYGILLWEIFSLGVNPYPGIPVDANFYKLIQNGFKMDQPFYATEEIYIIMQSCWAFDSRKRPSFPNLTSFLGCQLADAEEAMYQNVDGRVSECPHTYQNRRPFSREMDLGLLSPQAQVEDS
Tyrosine-protein kinase JAK1, sequence (P23458 whole entry): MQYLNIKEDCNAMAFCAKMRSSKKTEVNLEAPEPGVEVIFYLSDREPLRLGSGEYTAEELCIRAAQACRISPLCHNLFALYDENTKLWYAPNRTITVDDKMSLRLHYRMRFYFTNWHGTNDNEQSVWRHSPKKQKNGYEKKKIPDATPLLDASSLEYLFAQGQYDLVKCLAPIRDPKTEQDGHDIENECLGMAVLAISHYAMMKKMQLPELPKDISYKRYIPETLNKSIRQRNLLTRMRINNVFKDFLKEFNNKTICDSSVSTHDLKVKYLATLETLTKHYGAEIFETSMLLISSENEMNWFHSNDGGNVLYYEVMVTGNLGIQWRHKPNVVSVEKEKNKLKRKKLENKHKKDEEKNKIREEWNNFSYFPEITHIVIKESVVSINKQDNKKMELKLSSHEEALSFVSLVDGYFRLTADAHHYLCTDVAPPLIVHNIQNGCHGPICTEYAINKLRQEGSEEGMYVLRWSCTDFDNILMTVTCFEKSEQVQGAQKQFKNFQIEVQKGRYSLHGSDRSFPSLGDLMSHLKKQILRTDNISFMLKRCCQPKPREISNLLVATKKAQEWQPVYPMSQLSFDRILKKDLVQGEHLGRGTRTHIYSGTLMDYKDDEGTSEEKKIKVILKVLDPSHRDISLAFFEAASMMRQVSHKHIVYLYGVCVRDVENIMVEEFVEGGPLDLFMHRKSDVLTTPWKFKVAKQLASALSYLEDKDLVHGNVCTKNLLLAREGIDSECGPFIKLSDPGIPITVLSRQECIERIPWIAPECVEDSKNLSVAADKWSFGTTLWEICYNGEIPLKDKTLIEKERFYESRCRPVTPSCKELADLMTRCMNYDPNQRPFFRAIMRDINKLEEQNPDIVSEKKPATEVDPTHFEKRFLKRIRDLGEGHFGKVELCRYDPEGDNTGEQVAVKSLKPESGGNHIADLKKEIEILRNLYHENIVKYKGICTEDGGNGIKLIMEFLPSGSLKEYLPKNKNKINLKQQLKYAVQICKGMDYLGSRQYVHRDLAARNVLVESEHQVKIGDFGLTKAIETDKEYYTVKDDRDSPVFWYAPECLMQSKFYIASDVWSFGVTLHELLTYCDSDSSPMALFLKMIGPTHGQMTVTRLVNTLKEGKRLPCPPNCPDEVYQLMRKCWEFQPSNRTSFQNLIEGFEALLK
Ribosomal protein S6 kinase alpha-3, sequence (P51812 whole entry): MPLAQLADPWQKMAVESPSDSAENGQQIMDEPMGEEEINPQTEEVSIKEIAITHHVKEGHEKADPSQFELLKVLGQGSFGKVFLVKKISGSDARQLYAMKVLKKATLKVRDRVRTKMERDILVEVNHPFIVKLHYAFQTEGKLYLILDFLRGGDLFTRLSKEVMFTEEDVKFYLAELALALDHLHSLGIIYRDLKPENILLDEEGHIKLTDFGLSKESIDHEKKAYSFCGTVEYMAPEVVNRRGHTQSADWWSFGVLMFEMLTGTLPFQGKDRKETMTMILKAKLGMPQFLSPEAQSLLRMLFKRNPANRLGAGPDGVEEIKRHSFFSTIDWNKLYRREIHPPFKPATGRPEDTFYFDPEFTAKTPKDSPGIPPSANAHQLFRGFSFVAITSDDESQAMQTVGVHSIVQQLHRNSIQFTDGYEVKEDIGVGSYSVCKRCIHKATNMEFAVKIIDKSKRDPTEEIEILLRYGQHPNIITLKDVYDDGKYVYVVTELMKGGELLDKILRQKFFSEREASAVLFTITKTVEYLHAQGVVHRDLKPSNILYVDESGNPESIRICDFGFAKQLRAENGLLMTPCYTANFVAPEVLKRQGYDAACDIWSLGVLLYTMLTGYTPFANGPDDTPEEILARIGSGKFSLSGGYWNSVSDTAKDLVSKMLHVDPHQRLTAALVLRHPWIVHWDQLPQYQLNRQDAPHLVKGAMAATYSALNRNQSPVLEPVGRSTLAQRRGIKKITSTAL

**Q.** How did the IC50 [1] turn out when `CCC(=O)N1CC[C@H](Nc2ncnc3c2CN(c2cnc(OC)c(C(F)(F)F)c2)CC3)C1` [LENIOLISIB] was run?
**A.** The IC50 was over 10000 nM.

**Q.** With `CN(C)C(=O)Cn1cc(-c2ccc(-c3cncc4ccccc34)cc2)cn1` as the compound, how does the IC50 [2] read?
**A.** Its IC50 is 809 nM.

**Q.** With `CCc1cc(Nc2nccc(-c3c(-c4ccc(OC)c(C(=O)Nc5c(F)cccc5F)c4)nc4ccccn34)n2)c(OC)cc1N1CCC(N2CCN(S(C)(=O)=O)CC2)CC1` as the compound, how does the % of inhibition [3] read?
**A.** Its % of inhibition is 57%.

**Q.** How did the % of control [4] turn out when `COCC(=O)NC/C=C/c1ccc2ncnc(Nc3ccc(Oc4ccc(C)nc4)c(C)c3)c2c1` [CP-724714] was run?
**A.** Its % of control is 100%.

**Q.** What does the source list for `COc1cc(Nc2nc(C)cc(-c3cnn4nc(OC)ccc34)n2)cc(C(F)(F)F)c1`?
**A.** % of control [5]: 77%; % of control [6]: 100%

**Q.** `Cc1cnc(Nc2ccc(F)cc2Cl)nc1-c1c[nH]c(C(=O)N[C@H](CO)c2cccc(Cl)c2)c1` was tested. Which % of inhibition [7] did it give?
**A.** Its % of inhibition is 50%.

**Q.** With `CN(C)CCOc1ccc(-c2nc(-c3ccncc3)c(-c3ccc4c(c3)CC/C4=N\O)[nH]2)cc1` as the compound, how does the % of control [8] read?
**A.** The % of control was 94%.
